Key:
[1] = system: BV2 microglia cells; experiment: BV2 cell NO assay (LPS-induced NO production, Griess reagent); type: cell-based; details: Mus musculus, BV-2, LPS 1 μg/ml, 24 hours
Outline: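 BV2 cells; NO suppression tested only at concentrations showing no cytotoxicity in an MTT assay (0.5 mg/ml MTT, absorbance 540 nm). NO read by absorbance at 540 nm; suppression rate taken as the difference in NO produced between control and treated groups; mean of three repeats.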

[2] = target: PTP1B (Homo sapiens (Human), UniProt P18031); experiment: Experiment of PTP1B inhibition (p-NPP dephosphorylation); type: biochemical; details: 2 mM p-NPP substrate, 30° C., 30 minutes
Chain of PTP1B (P18031 whole entry, species assumed): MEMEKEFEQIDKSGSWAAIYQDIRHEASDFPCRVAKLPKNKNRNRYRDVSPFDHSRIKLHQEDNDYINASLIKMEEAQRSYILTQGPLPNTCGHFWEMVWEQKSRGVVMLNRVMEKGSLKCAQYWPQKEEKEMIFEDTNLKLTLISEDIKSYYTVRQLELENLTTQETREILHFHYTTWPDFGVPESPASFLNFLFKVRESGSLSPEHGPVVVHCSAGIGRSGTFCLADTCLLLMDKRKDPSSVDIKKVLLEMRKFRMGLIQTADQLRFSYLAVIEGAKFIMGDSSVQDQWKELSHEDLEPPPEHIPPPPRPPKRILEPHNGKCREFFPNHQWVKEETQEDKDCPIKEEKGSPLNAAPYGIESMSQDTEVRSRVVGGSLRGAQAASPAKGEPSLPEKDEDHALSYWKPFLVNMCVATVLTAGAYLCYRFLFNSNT
Outline: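 PTP1B reacted with 2 mM p-NPP in 50 mM citrate pH 6.0, 0.1 M NaCl, 1 mM EDTA, 1 mM DTT plus compound at various concentrations, 30 °C for 30 min. Reaction stopped with 1 N NaOH; p-nitrophenol absorbance gives IC50.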

[3] = Chemical stability in 1% HCl in MeOH (HPLC); type: physicochemical; details: for stability in words: until 3 days (72 hours)
Description: The relative chemical stability of glabridin of Preparation Example 1, Example 3 (Compound 4), Example 4 (Compound 5) and Example 14 (Compound 15) were compared with each other. That is, 50 mg of each of glabridin, Compound 4, Compound 5, and Compound 15 was exactly weighed, dissolved in 50 ml of 1% HCl in MeOH and 10 ml of 1% NaOH in MeOH, and the concentrations of the compounds were examined by HPLC at each time level of 0, 8 hrs, 12 hrs, 24 hrs, 48 hrs, and 72 hrs. At this time, the concentrations of the compounds remaining in 1% HCl in MeOH and 1% NaOH in MeOH were determined using an internal standard (Compound 14 of Example 13). That is, 10 mg of Compound 14 was exactly weighed and dissolved in 100 ml of acetonitrile, 9 ml of this solution was mixed with 1 ml of the sample aliquoted at each time level, the mixture was analyzed by HPLC, and the concentrations of the compounds in the internal standard and in the above samples were determined by comparing the initial values.
The concentrations of the compounds remaining in 1% HCl in MeOH and 1% NaOH in MeOH at each time level are in the following Table 8 and FIG. 7 and the following Table 9 and FIG. 8, respectively.
The numerical values exceeding 100% in the following Tables 8 and 9 show those measured at a concentration is slightly higher than the initial measurement value, and this is due to the fact that an average value of the measured values was simply shown without considering a statistical error generated during the measurement. Since the measured value of about 95% or more is deemed to have practically no change in concentration, it may be seen that the compounds of the present invention are excellent in chemical stability.

[4] = system: DIO mice; experiment: Anti-obesity effect for DIO mice (body weight); type: in vivo, C57BL/6 mice; details: Mus musculus, 672 h; 4 weeks, 150 mg/kg, oral gavage once daily
Outline: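 Female C57BL/6 mice made obese by ≥10 weeks of high-fat diet; compounds suspended in 0.5% methyl cellulose and given by oral gavage once daily for 28 days. Body weight measured twice weekly; effect (%) = (control weight − treated weight)/control weight × 100.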

| IC50 [1] [µM] | IC50 [2] [µM] | concentration of compound remaining [3]; 0 [%] | concentration of compound remaining ([3]; 8 h) [%] | concentration of compound remaining ([3]; 24 h) [%] | concentration of compound remaining ([3]; 48 h) [%] | concentration of compound remaining ([3]; 72 h) [%] | stability in words [3] | SMILES | inhibition in vivo at 150 mg/kg [4] [%] |
| --- | --- | --- | --- | --- | --- | --- | --- | --- | --- |
| 2.7 | 8.6 | 100 | 98 | 100 | 98 | 100 | very stable | CCOc1ccc(C2COc3c(ccc4c3CCC(C)(C)O4)C2)c(O)c1 (stereo not drawn) [Compound 15, 3-(2-hydroxy-4-ethoxyphenyl)-8,8-dimethyl-2,3,4,8,9,10-hexahydropyrano [2,3-f] chromene] | 14 |
| 3.8 | 2.8 | 100 | 102 | 102 | 101 | 101 | very stable | CCCc1ccc(C2COc3c(ccc4c3CCC(C)(C)O4)C2)c(O)c1 (stereo not drawn) [Compound 5, 3-(2-hydroxy-4-propylphenyl)-8,8-dimethyl-2,3,4,8,9,10-hexahydropyrano [2,3-f] chromene] | 19 |
